The source of these data is ChEMBL document CHEMBL1130184, “Effect of a chemical modification on the hydrated adenosine intermediate produced by adenosine deaminase and a model reaction for a potential mechanism of action of 5-aminoimidazole ribonucleotide carboxylase” (J Med Chem, 1997).

Molecules are shown by their SMILES.

The target of assay [1] is T1, Adenosine deaminase (Bos taurus, UniProt P56658).
T1 sequence (P56658 whole entry): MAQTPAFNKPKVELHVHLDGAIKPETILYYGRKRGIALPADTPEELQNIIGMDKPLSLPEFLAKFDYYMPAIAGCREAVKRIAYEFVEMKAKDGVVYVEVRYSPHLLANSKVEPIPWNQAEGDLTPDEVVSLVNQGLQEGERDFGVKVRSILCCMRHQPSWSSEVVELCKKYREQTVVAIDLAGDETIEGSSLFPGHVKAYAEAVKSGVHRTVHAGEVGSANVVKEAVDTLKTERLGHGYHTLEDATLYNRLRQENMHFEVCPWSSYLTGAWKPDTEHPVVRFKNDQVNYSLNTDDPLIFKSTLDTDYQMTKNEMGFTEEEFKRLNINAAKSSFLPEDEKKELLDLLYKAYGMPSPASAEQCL
Description: Apparent binding constant against adenosine deaminase.

Assay [2] deals with T1, Adenosine deaminase. Description: Inhibitory activity against adenosine deaminase.
Assay [3] deals with T2, Adenosine deaminase (Bos taurus) (UniProt P56658).
T2 sequence (whole entry): T1 sequence (P56658 whole entry)
Description: Inhibitory activity of compound at 25 uM against adenosine deaminase.

For the molecule `O=CNc1cn([C@@H]2O[C@H](CO)[C@@H](O)[C@H]2O)cn1`, on Adenosine deaminase [1], the Ki is 40 µM. Turning to `Nc1ccnc2c1ncn2[C@@H]1O[C@H](CO)[C@@H](O)[C@H]1O`, the Ki on Adenosine deaminase [2] was found to be 0.18 µM. As to `Nc1ncnc2c1ncn2[C@@H]1O[C@H](CO)[C@@H](O)[C@H]1O`, in assay [3], the inhibition turned out to be 15%.

Usually inhibition stands for the percentage by which the read-out fell short of the control.
